In the CheMixHub viscosity set:
± gives the uncertainty stated by the source.

Assay: xn = mol fraction of the nth substance listed

CC1CCCCC1O (centres undefined) + NC1CCCCC1
viscosity [mPa·s], 100 kPa
Conditions | x1 = 0.04642 | x1 = 0.09319 | x1 = 0.1878 | x1 = 0.2839 | x1 = 0.3814 | x1 = 0.4805 | x1 = 0.5811 | x1 = 0.6834 | x1 = 0.7872 | x1 = 0.8928
293.15 K | 2.657 ± 0.058 | 2.965 ± 0.065 | 3.533 ± 0.077 | 4.632 ± 0.1 | 5.819 ± 0.13 | 7.685 ± 0.17 | 11.76 ± 0.26 | 15.63 ± 0.34 | 20 ± 0.44 | 27.62 ± 0.6
298.15 K | 2.328 ± 0.051 | 2.582 ± 0.056 | 3.048 ± 0.066 | 3.894 ± 0.085 | 4.852 ± 0.11 | 6.53 ± 0.14 | 9.343 ± 0.2 | 12.39 ± 0.27 | 15.17 ± 0.33 | 19.95 ± 0.44
303.15 K | 2.057 ± 0.045 | 2.27 ± 0.05 | 2.656 ± 0.058 | 3.351 ± 0.073 | 4.096 ± 0.089 | 5.343 ± 0.12 | 7.677 ± 0.17 | 9.722 ± 0.21 | 11.73 ± 0.26 | 14.98 ± 0.33
308.15 K | 1.833 ± 0.04 | 2.008 ± 0.044 | 2.335 ± 0.051 | 3.042 ± 0.066 | 3.498 ± 0.076 | 4.468 ± 0.097 | 6.235 ± 0.14 | 7.748 ± 0.17 | 9.687 ± 0.21 | 11.45 ± 0.25
313.15 K | 1.645 ± 0.036 | 1.791 ± 0.039 | 2.068 ± 0.045 | 2.65 ± 0.058 | 3.018 ± 0.066 | 3.782 ± 0.083 | 5.118 ± 0.11 | 6.295 ± 0.14 | 7.365 ± 0.16 | 8.876 ± 0.19

CCN(CC)CC + Cc1ccccc1
303.15 K, 101 kPa
Conditions | viscosity [mPa·s]
x1 = 0.01196 | 0.5137 ± 0.0046
x1 = 0.02231 | 0.5093 ± 0.0046
x1 = 0.03105 | 0.5049 ± 0.0047
x1 = 0.04186 | 0.4993 ± 0.0045
x1 = 0.04881 | 0.4963 ± 0.0045
x1 = 0.0617 | 0.4911 ± 0.0045
x1 = 0.0685 | 0.4859 ± 0.0045
x1 = 0.07915 | 0.4823 ± 0.0042
x1 = 0.09159 | 0.4786 ± 0.0042
x1 = 0.1002 | 0.4755 ± 0.0042

CCN(CC)CC + OCCO
101 kPa
Conditions | viscosity [mPa·s]
296.95 K, x1 = 0.143 | 16.28 ± 0.14
297.85 K, x1 = 0.268 | 9.85 ± 0.14
297.85 K, x1 = 0.514 | 2.7 ± 0.06
297.85 K, x1 = 0.789 | 0.704 ± 0.021
301.85 K, x1 = 0.143 | 13.5 ± 0.14
302.85 K, x1 = 0.268 | 7.9 ± 0.09
302.85 K, x1 = 0.789 | 0.644 ± 0.007
306.45 K, x1 = 0.143 | 11.7 ± 0.11
307.85 K, x1 = 0.268 | 6.79 ± 0.07
307.85 K, x1 = 0.514 | 2.05 ± 0.02
307.85 K, x1 = 0.789 | 0.589 ± 0.006
312.95 K, x1 = 0.268 | 5.7 ± 0.06
312.95 K, x1 = 0.514 | 1.79 ± 0.02
312.95 K, x1 = 0.789 | 0.543 ± 0.006
313.45 K, x1 = 0.143 | 9.46 ± 0.09
317.75 K, x1 = 0.268 | 4.91 ± 0.05
317.75 K, x1 = 0.514 | 1.61 ± 0.02
317.75 K, x1 = 0.789 | 0.514 ± 0.005
320.45 K, x1 = 0.143 | 7.64 ± 0.09
322.75 K, x1 = 0.268 | 4.18 ± 0.04
322.75 K, x1 = 0.514 | 1.45 ± 0.01

CCCOC(C)=O + O=S1(=O)CCCC1
101 kPa
Conditions | viscosity [mPa·s]
303.15 K, x1 = 0.0177 | 9.305 ± 0.074
308.15 K, x2 = 0.6489 | 2.375 ± 0.021
313.15 K, x2 = 0.7639 | 3.185 ± 0.028

ClC(Cl)(Cl)Cl + COc1ccccc1
viscosity [mPa·s], 101 kPa
Conditions | x2 = 0.105 | x2 = 0.2013 | x2 = 0.3026 | x2 = 0.3956 | x2 = 0.5023 | x2 = 0.5968 | x2 = 0.699 | x2 = 0.797 | x2 = 0.8998
298.15 K | 0.9408 ± 0.024 | 0.9425 ± 0.024 | 0.9493 ± 0.025 | 0.9547 ± 0.025 | 0.9644 ± 0.025 | 0.9745 ± 0.025 | 0.9834 ± 0.025 | 0.9896 ± 0.026 | 0.9961 ± 0.026
303.15 K | 0.8895 ± 0.023 | 0.8842 ± 0.023 | 0.8852 ± 0.023 | 0.8927 ± 0.023 | 0.9013 ± 0.023 | 0.9054 ± 0.024 | 0.9147 ± 0.024 | 0.919 ± 0.024 | 0.926 ± 0.024
308.15 K | 0.8268 ± 0.021 | 0.8263 ± 0.021 | 0.8279 ± 0.021 | 0.8326 ± 0.022 | 0.8397 ± 0.022 | 0.8446 ± 0.022 | 0.8502 ± 0.022 | 0.8547 ± 0.022 | 0.858 ± 0.022
313.15 K | 0.7762 ± 0.02 | 0.7751 ± 0.02 | 0.7851 ± 0.02 | 0.7777 ± 0.02 | 0.7837 ± 0.02 | 0.7864 ± 0.02 | 0.7919 ± 0.021 | 0.7946 ± 0.021 | 0.7981 ± 0.021

CCN(CC)CC + O
293.15 K, 100 kPa
Conditions | viscosity [mPa·s]
x1 = 0.0049 | 1.176 ± 0.0092
x1 = 0.0095 | 1.323 ± 0.01
x1 = 0.015 | 1.554 ± 0.012
x2 = 0.1006 | 0.4211 ± 0.0044
x2 = 0.204 | 0.5113 ± 0.005
x2 = 0.2996 | 0.6374 ± 0.0059
x2 = 0.4007 | 0.8296 ± 0.0074
x2 = 0.4997 | 1.135 ± 0.0096
x2 = 0.5997 | 1.614 ± 0.013
x2 = 0.7028 | 2.385 ± 0.022
x2 = 0.98 | 1.722 ± 0.013

ClC(Cl)(Cl)Cl + C1CCCCC1
Conditions | viscosity [mPa·s]
298 K, 101 kPa, x1 = 0.2753 | 0.8903 ± 0.018
298 K, 101 kPa, x1 = 0.3845 | 0.8916 ± 0.018
298 K, 101 kPa, x1 = 0.4418 | 0.8924 ± 0.018
298 K, 101 kPa, x1 = 0.4727 | 0.8928 ± 0.018
298 K, 101 kPa, x1 = 0.58 | 0.8943 ± 0.018
298 K, 101 kPa, x1 = 0.6707 | 0.8955 ± 0.018
298 K, 101 kPa, x1 = 0.6805 | 0.8956 ± 0.018
298 K, 101 kPa, x1 = 0.7701 | 0.8969 ± 0.018
298 K, 101 kPa, x1 = 0.864 | 0.8982 ± 0.018
298 K, 101.3 kPa, x1 = 0.1774 | 0.847 ± 0.008
298 K, 101.3 kPa, x1 = 0.3265 | 0.831 ± 0.008
298 K, 101.3 kPa, x1 = 0.5278 | 0.836 ± 0.008
298 K, 101.3 kPa, x1 = 0.6746 | 0.844 ± 0.008
298 K, 101.3 kPa, x1 = 0.8521 | 0.86 ± 0.009
298.15 K, 101 kPa, x1 = 0.272 | 0.858 ± 0.022
298.15 K, 101 kPa, x1 = 0.5295 | 0.8568 ± 0.022
298.15 K, 101 kPa, x1 = 0.7707 | 0.867 ± 0.022
298.15 K, 101.33 kPa, x1 = 0.272 | 0.858 ± 0.023
298.15 K, 101.33 kPa, x1 = 0.5 | 0.8551 ± 0.023
298.15 K, 101.33 kPa, x1 = 0.5295 | 0.8568 ± 0.023
298.15 K, 101.33 kPa, x1 = 0.625 | 0.8594 ± 0.023
298.15 K, 101.33 kPa, x1 = 0.7707 | 0.867 ± 0.023
318 K, 101.3 kPa, x1 = 0.1636 | 0.6445 ± 0.024
318 K, 101.3 kPa, x1 = 0.3244 | 0.6522 ± 0.024
318 K, 101.3 kPa, x1 = 0.5293 | 0.667 ± 0.025
318 K, 101.3 kPa, x1 = 0.6744 | 0.6869 ± 0.025
318 K, 101.3 kPa, x1 = 0.8658 | 0.7148 ± 0.026

ClC(Cl)(Cl)Cl + CC(C)(C)O
viscosity [mPa·s], 101 kPa
Conditions | 298.15 K | 308.15 K | 318.15 K
x2 = 0.0318 | 0.886 ± 0.009 | 0.768 ± 0.008 | 0.674 ± 0.007
x2 = 0.044 | 0.888 ± 0.009 | 0.77 ± 0.008 | 0.674 ± 0.007
x2 = 0.086 | 0.91 ± 0.009 | 0.78 ± 0.008 | 0.678 ± 0.007
x2 = 0.1644 | 0.958 ± 0.009 | 0.801 ± 0.008 | 0.693 ± 0.007
x2 = 0.2487 | 1.007 ± 0.01 | 0.853 ± 0.008 | 0.712 ± 0.007
x2 = 0.3632 | 1.086 ± 0.01 | 0.897 ± 0.009 | 0.751 ± 0.007
x2 = 0.4833 | 1.221 ± 0.012 | 0.987 ± 0.01 | 0.806 ± 0.008
x2 = 0.6052 | 1.43 ± 0.014 | 1.118 ± 0.011 | 0.892 ± 0.009
x2 = 0.7156 | 1.74 ± 0.017 | 1.303 ± 0.013 | 1.007 ± 0.01
x2 = 0.8301 | 2.392 ± 0.023 | 1.67 ± 0.016 | 1.222 ± 0.012
x2 = 0.9132 | 3.045 ± 0.03 | 1.98 ± 0.02 | 1.381 ± 0.013

ClC(Cl)(Cl)Cl + CCCCOCCO
298.15 K, 101.3 kPa
Conditions | viscosity [mPa·s]
x2 = 0.0054 | 0.913 ± 0.011
x2 = 0.0106 | 0.919 ± 0.011
x2 = 0.0262 | 0.918 ± 0.011
x2 = 0.0778 | 0.968 ± 0.012
x2 = 0.1296 | 1.035 ± 0.013
x2 = 0.1914 | 1.125 ± 0.014
x2 = 0.2889 | 1.283 ± 0.015
x2 = 0.3826 | 1.47 ± 0.017
x2 = 0.4809 | 1.687 ± 0.02
x2 = 0.5388 | 1.81 ± 0.021
x2 = 0.5933 | 1.935 ± 0.022
x2 = 0.6963 | 2.162 ± 0.025
x2 = 0.7923 | 2.385 ± 0.027
x2 = 0.8841 | 2.589 ± 0.029
x2 = 0.9631 | 2.759 ± 0.031

ClC(Cl)(Cl)Cl + O=[N+]([O-])c1ccccc1
101 kPa
Conditions | viscosity [mPa·s]
298.15 K, x1 = 0.17 | 1.613 ± 0.11
298.15 K, x1 = 0.35 | 1.411 ± 0.1
298.15 K, x1 = 0.55 | 1.224 ± 0.089
298.15 K, x1 = 0.76 | 1.099 ± 0.081
303.15 K, x2 = 0.0951 | 0.8421 ± 0.0061
303.15 K, x2 = 0.1913 | 0.8672 ± 0.0063
303.15 K, x2 = 0.2891 | 0.8934 ± 0.0065
303.15 K, x2 = 0.3875 | 0.9219 ± 0.0067
303.15 K, x2 = 0.4865 | 0.9908 ± 0.0072
303.15 K, x2 = 0.5871 | 1.059 ± 0.0076
303.15 K, x2 = 0.6886 | 1.159 ± 0.0083
303.15 K, x2 = 0.7915 | 1.25 ± 0.009
303.15 K, x2 = 0.8947 | 1.436 ± 0.01
